From the NIST ThermoML archive (doi:10.1016/j.jct.2017.03.026)
Several values for one entry are separate records, joined by “and”; a condition that tells them apart may be missing. Equal values may be shown once.

Assay: molar heat capacity at constant pressure
Conditions: 101.33 kPa, Crystal, Small (less than 1 g) adiabatic calorimetry

O.O.O.O.O.O=S(=O)([O-])[O-].[Cu+2] [copper(II) sulfate pentahydrate]
Conditions	molar heat capacity at constant pressure
195.86 K	210.72 J/K/mol
196.02 K	208.8 J/K/mol
196.2 K	210.85 J/K/mol
196.62 K	212.01 J/K/mol
196.78 K	210.59 J/K/mol
196.97 K	211.56 J/K/mol
197.34 K	208.77 J/K/mol
197.52 K	212.45 J/K/mol
197.54 K	211.37 J/K/mol
197.92 K	209.01 J/K/mol
198.12 K	212.62 J/K/mol
198.28 K	211.94 J/K/mol
198.86 K	213.01 J/K/mol
199.03 K	212.84 J/K/mol
199.23 K	213.44 J/K/mol
199.77 K	213.38 J/K/mol
199.89 K	214.1 J/K/mol
200 K	210.9 J/K/mol
200.02 K	210.29 J/K/mol
200.18 K	214.5 J/K/mol
200.35 K	215.02 J/K/mol
200.44 K	211.49 J/K/mol
200.5 K	214.14 J/K/mol
201.23 K	214.77 J/K/mol
201.49 K	215.23 J/K/mol
201.51 K	215.2 J/K/mol
201.96 K	215.31 J/K/mol
202.12 K	212.11 J/K/mol
202.61 K	217.02 J/K/mol
202.68 K	216.55 J/K/mol
202.83 K	216.31 J/K/mol
203.14 K	217.49 J/K/mol
203.42 K	216.87 J/K/mol
203.52 K	214.16 J/K/mol
203.74 K	217.35 J/K/mol
204.14 K	217.62 J/K/mol
204.2 K	218.19 J/K/mol
204.22 K	214.4 J/K/mol
204.87 K	218.11 J/K/mol and 218.14 J/K/mol
205.53 K	218.8 J/K/mol
205.59 K	218.93 J/K/mol
205.99 K	219.33 J/K/mol
206.31 K	219.39 J/K/mol
206.33 K	215.55 J/K/mol
206.4 K	220.52 J/K/mol
206.59 K	216.64 J/K/mol
206.85 K	220.61 J/K/mol
207.02 K	220.58 J/K/mol
207.11 K	220.48 J/K/mol
207.81 K	220.88 J/K/mol
208.18 K	221.52 J/K/mol
208.23 K	222.38 J/K/mol
208.45 K	218.01 J/K/mol
208.52 K	222.44 J/K/mol
209.24 K	222.92 J/K/mol
209.37 K	222.88 J/K/mol
209.5 K	223.33 J/K/mol
209.64 K	219.18 J/K/mol
209.68 K	223.6 J/K/mol
209.96 K	223.05 J/K/mol
210 K	219.4 J/K/mol
210.49 K	223.26 J/K/mol
210.58 K	219.18 J/K/mol
210.67 K	223.74 J/K/mol
210.83 K	223.72 J/K/mol
211.38 K	224.39 J/K/mol
211.61 K	224.89 J/K/mol
212.1 K	224.82 J/K/mol
212.14 K	225.35 J/K/mol
212.68 K	221.85 J/K/mol
212.7 K	220.97 J/K/mol
212.75 K	225.67 J/K/mol
212.81 K	225.63 J/K/mol
212.95 K	226.54 J/K/mol
213.47 K	226.67 J/K/mol
213.52 K	226.64 J/K/mol
213.88 K	226.4 J/K/mol
214.25 K	227.02 J/K/mol
214.8 K	227.75 J/K/mol
214.83 K	222.9 J/K/mol
214.96 K	227.58 J/K/mol
215 K	227.95 J/K/mol
215.67 K	228.21 J/K/mol
215.69 K	224.43 J/K/mol
216.13 K	230.23 J/K/mol
216.19 K	228.74 J/K/mol
216.23 K	229.64 J/K/mol
216.38 K	229.09 J/K/mol
216.96 K	224.83 J/K/mol
217.1 K	229.55 J/K/mol
217.31 K	230.09 J/K/mol
217.46 K	230.34 J/K/mol
217.81 K	229.9 J/K/mol
218.45 K	231.22 J/K/mol
218.51 K	230.59 J/K/mol
218.69 K	227.07 J/K/mol
218.79 K	231.49 J/K/mol
219.1 K	226.58 J/K/mol
219.27 K	231.87 J/K/mol
219.52 K	232.65 J/K/mol
219.6 K	231.9 J/K/mol
219.98 K	232.07 J/K/mol
220 K	228 J/K/mol
220.12 K	232.93 J/K/mol
220.68 K	232.63 J/K/mol
220.72 K	233.3 J/K/mol
221.23 K	229.07 J/K/mol
221.39 K	233.36 J/K/mol
221.44 K	233.44 J/K/mol
221.67 K	229.65 J/K/mol
221.86 K	234.58 J/K/mol
222.09 K	234.58 J/K/mol
222.76 K	235.19 J/K/mol
222.81 K	235.64 J/K/mol and 235.01 J/K/mol
223 K	235.73 J/K/mol
223.42 K	230.15 J/K/mol
223.51 K	235.25 J/K/mol
224.08 K	236.48 J/K/mol
224.14 K	236.55 J/K/mol
224.22 K	235.98 J/K/mol
224.64 K	232.13 J/K/mol
224.92 K	236.68 J/K/mol
225.28 K	237.03 J/K/mol
225.45 K	237.85 J/K/mol
225.57 K	231.89 J/K/mol
225.62 K	237.74 J/K/mol
226.1 K	239.21 J/K/mol
226.33 K	238.26 J/K/mol
226.41 K	238.72 J/K/mol
226.77 K	238.57 J/K/mol
227.03 K	238.58 J/K/mol
227.55 K	239.68 J/K/mol
227.61 K	234.56 J/K/mol
227.72 K	233.69 J/K/mol
227.73 K	239.34 J/K/mol
228.08 K	239.61 J/K/mol
228.43 K	239.99 J/K/mol
228.69 K	240.1 J/K/mol
229.13 K	241.13 J/K/mol
229.38 K	242.74 J/K/mol and 240.91 J/K/mol
229.82 K	241.69 J/K/mol
229.84 K	241.43 J/K/mol
229.87 K	235.54 J/K/mol
230 K	236.5 J/K/mol
230.54 K	237.24 J/K/mol
230.59 K	242.26 J/K/mol
230.69 K	242.63 J/K/mol
230.95 K	243.17 J/K/mol
231.28 K	242.67 J/K/mol
231.97 K	243.3 J/K/mol
232 K	244.22 J/K/mol
232.02 K	238.28 J/K/mol
232.09 K	244.43 J/K/mol
232.67 K	243.85 J/K/mol
232.75 K	246.09 J/K/mol
233.23 K	245.48 J/K/mol
233.31 K	244.86 J/K/mol
233.36 K	244.3 J/K/mol
